{
  "source": "patent US20180196033A1",
  "about": "“CELL TRACKING REAGENTS AND THEIR METHODS OF USE” (LIFE TECHNOLOGIES CORPORATION, priority 2015, published 2018)",
  "tested_on": "Human peripheral blood mononuclear cells (PBMCs)",
  "experiment": "Generational tracking of cell proliferation by dye dilution, flow cytometry",
  "format": "cell-based",
  "settings": "PBMCs stained with 10 mM stock at 1 μL per mL of cells, 20 min; stimulated with Interleukin-2 and CD3/CD28 DYNABEADS; 355 nm laser, 450/50 bandpass emission filter",
  "experimental": "20 mL whole blood were added to 20 mL DPBS and mixed well. 15 mL FICOLL-PAQUE® PLUS (GE Healthcare) were added to each of two 50 mL centrifuge tubes. 20 mL of the diluted whole blood was carefully layered on top. The tube containing the whole blood was centrifuged for 30 min at 400×g and the peripheral blood mononuclear cell (PBMC) layer was carefully removed. The cells were resuspended in 25 mL DPBS in a 50 mL centrifuge tube and centrifuged for 5 min at 400×g. The supernatant was decanted and the cells were resuspended in 10 mL DPBS. Cells were counted on a COUNTESS Automated Cell Counter (Thermo Fisher Scientific) with the concentration adjusted to 1×10^6 cells/mL in DPBS.\n20 μL anhydrous DMSO was added to a vial of dry Compound 1 (64 μg) at room temperature. 1 mL of unstained cells was reserved as a control. Cells were labeled with 1 μL of 10 mM Compound 1, per milliliter of cell suspension. The tubes were immediately vortexed for 30 sec and the cells were incubated for 20 min at room temperature, protected from light. […]\n2 mL of each sample were removed by first mixing sample with a pipet then transferring them to their own tubes. […] Cells were counted on a COUNTESS Automated Cell Counter with the concentration adjusted to 1×10^6 cells/mL in DPBS. […]",
  "note": "Where “and” joins values, the source holds several entries; their conditions need not be identical. Equal values may be shown once.",
  "data": [
    {"smiles": "COc1ccc2cc(C(=O)ON3C(=O)CCC3=O)c(=O)oc2c1", "note": "[Compound 1]", "values": [
      {"measurement": "time over which cell proliferation was followed (discrete peaks of successive generations of live, CD4 positive cells)", "value": "7 days and 6 days"}
    ]}
  ]
}
